What all share (assay type): binding
What all share (settings): competitive FP titration vs CF-ppIRS1 100 nM, protein fixed; n = 3 technical replicates

Assay [1] has as its target T1, inactive SHP2 catalytic domain Pocketless (K260E+R265S) (Homo sapiens, UniProt Q06124, C459S/K260E/R265S).
T1 construct: SHP2 K260E+R265S (Pocketless); 219-528 + C459S; His6 (N); made in house; host or cells: E. coli BL21 (DE3)
T1 sequence (Q06124 219-528 K260E/R265S/C459S): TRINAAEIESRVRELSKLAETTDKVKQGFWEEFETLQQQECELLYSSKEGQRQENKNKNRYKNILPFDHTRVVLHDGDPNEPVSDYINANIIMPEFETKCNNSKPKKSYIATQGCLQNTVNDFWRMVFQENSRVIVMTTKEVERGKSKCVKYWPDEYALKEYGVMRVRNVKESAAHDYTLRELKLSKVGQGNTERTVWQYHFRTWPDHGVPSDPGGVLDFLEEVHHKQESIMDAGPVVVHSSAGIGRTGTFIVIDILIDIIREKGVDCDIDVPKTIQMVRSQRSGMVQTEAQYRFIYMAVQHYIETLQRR
The assay can be described thus: Fluorescence polarization titrations, SHP2 Pocketless. The text has this: (§1) The two SH2 domains of PI3KR1 (UniProt P27986; nSH2: 321−433 cSH2: 614–724) were cloned from HEK293T cDNA pool, and subsequently ligated into a modified pET vector encoding maltose binding protein (MBP) tag on the N-terminal and a hexa-His tag on the C-terminal end of the construct. Similarly, the catalytic, tyrosine phosphatase domains of PTPRε (P23469 first domain: 107–399) and PTP1B (P18031; 1–229) were cloned from a HEK293T cDNA pool, and inserted into a pBH4 vector encoding an N-terminal His6 tag (for the final binding experiments, an MBP-tagged version of PTPRε was employed). […] Surface mutants of SHP2 were constructed from the SHP2-C459S plasmid, using the QuickChange protocol. The D425A and H426A catalytic site mutants and all enzymatically active surface mutants were generated similarly, but from the plasmid encoding the wild-type catalytic domain of SHP2. Wild-type C-terminal FLAG-tagged human IRS1 was cloned between HindIII-NotI sites of pcDNA3.1(+) vector (#V79020 Invitrogen, Waltham MA USA). Ser/Ala mutant IRS1 was generated by replacing the region of S616/S636/S666/S736 positions with a cassette carrying S616A/S636A/S666A/S736A mutations. All constructs were validated by complete Sanger sequencing before protein expression and purification. The oligonucleotide sequences used are shown on Supplementary table 4.
(§2) Fluorescence polarization (FP) assays were performed as follows: In direct titration experiments, protein concentration was varied in an 1/2 or 2/3 dilution series (90 µl protein+ 45 µl mix), while concentration of the reporter peptide (CF-ppIRS1) was kept constant at 100 nM. In competitive titrations, the labelled CF-ppIRS1 peptide and protein were both fixed (at 50–80% saturation) and the unlabelled competitor peptide concentration was varied. Fluorescence polarization was always measured in triplicates, on black Corning low volume round bottom 384-well plates (with 10 ul volumes), using a BioTek Cytatation 5 reader, with the green fluorescent protein (GFP) cube filter set (ex: 485/20, em: 528/20, gain: 50, height: 7.5). Fluorescence polarization data was evaluated on Origin 2018. The dissociation constants (Kd) were determined by using the appropriate quadratic and cubic equations inserted as a user-defined function and applying nonlinear fit until convergence. The fitting formulae are shown at Supplementary note 1. Kd ratio distributions for Fig. 6 were calculated using a Monte-Carlo approach (Supplementary note 2).
(§3) Supplementary note 1. Curve fitting of fluorescence polarization (FP) measurements.
(§4) To evaluate polarization values from direct and competitive titrations, we used the following fitting formulae in Origin 2018, as detailed below.
(§5) Direct titration curves were fitted according to the following formula: […]
(§6) Where Imin is the minimal anisotropy, Imax is the (asymptotically estimated) maximal intensity. K0 is the starting concentration of the protein, while T0 is the (fixed) concentration of the labelled peptide and Kd is the dissociation constant.
(§7) Competitive titration curves were fitted with a different formula (In addition to those defined above, constants KdT KdB B0 T0 and D0 here refer to the Kd derived from the direct titration, the unknown Kd of the analyte, the labelled peptide concentration, the competitor peptide concentration as well as the protein concentration, respectively).
(§8) The ± sign refers to two different scenarios, depending on the sign of discriminant (KdT > KdB or […]). For unknown analytes, the choice of sign is not arbitrary, as the fitting will not converge unless the appropriate formula is chosen: […]
(§9) Where A, B and C correspond to the following expressions: […]
On the technique in general: Polarisation of emitted light reports the rotation of a fluorescent probe.

The target in assay [2] is T2, inactive SHP2 catalytic domain Loopinv (R362E) (Homo sapiens, UniProt Q06124, C459S/R362E).
T2 construct: SHP2 R362E (Loopinv); 219-528 + C459S; His6 (N); made in house; host or cells: E. coli BL21 (DE3)
T2 sequence (Q06124 219-528 R362E/C459S): T1 sequence (Q06124 219-528 K260E/R265S/C459S) with E42K, S47R, R144E
In words: Fluorescence polarization titrations, SHP2 Loopinv.
From the text: as §1, §2, §3, §4, §5, §6, §7, §8, §9

Assay [3] deals with T3, inactive SHP2 catalytic domain Hillmut (K274E) (Homo sapiens, UniProt Q06124, C459S/K274E).
T3 construct: SHP2 K274E (Hillmut); 219-528 + C459S; His6 (N); made in house; host or cells: E. coli BL21 (DE3)
T3 sequence (Q06124 219-528 K274E/C459S): T1 sequence (Q06124 219-528 K260E/R265S/C459S) with E42K, S47R, K56E
The assay can be described thus: Fluorescence polarization titrations, SHP2 Hillmut.
From the text: as §1, §2, §3, §4, §5, §6, §7, §8, §9

Molecules are shown by their SMILES. Residue numbers refer to the chain shown, from its start.

Take `CSCC[C@H](NC(=O)[C@@H]1CCCN1C(=O)[C@H](CCSC)NC(=O)[C@H](Cc1ccc(OP(=O)(O)O)cc1)NC(=O)[C@H](CC(=O)O)NC(=O)CNC(=O)[C@H](CO)NC(=O)CNC(=O)[C@H](CCCCN)NC(=O)[C@H](CCCNC(=N)N)NC(=O)CN)C(=O)N[C@@H](COP(=O)(O)O)C(=O)N1CCC[C@H]1C(=O)N[C@@H](CCCCN)C(=O)N[C@@H](CO)C(=O)O` [ppIRS1]: the dissociation constant (Kd) in assay [1] is 6.36 ± 0.28 µM; in assay [2], 7.53 ± 1.1 µM; in assay [3], 2.23 ± 0.14 µM.

With `CSCC[C@H](NC(=O)[C@@H]1CCCN1C(=O)[C@H](CCSC)NC(=O)[C@H](Cc1ccc(OP(=O)(O)O)cc1)NC(=O)[C@H](CC(=O)O)NC(=O)CNC(=O)[C@H](CO)NC(=O)CNC(=O)[C@H](CCCCN)NC(=O)[C@H](CCCNC(=N)N)NC(=O)CN)C(=O)N[C@@H](CO)C(=O)N1CCC[C@H]1C(=O)N[C@@H](CCCCN)C(=O)N[C@@H](CO)C(=O)O` [p0IRS1], the dissociation constant (Kd) in assay [1] is 191 ± 15.5 µM; in assay [2] it was 61.8 ± 16.2 µM; in assay [3], 83.9 ± 2.58 µM.

`CSCC[C@H](NC(=O)[C@H](Cc1ccc(OP(=O)(O)O)cc1)NC(=O)[C@H](CC(=O)O)NC(=O)[C@H](CO)NC(=O)[C@H](Cc1c[nH]cn1)NC(=O)[C@H](CC(C)C)NC(=O)[C@H](CC(C)C)NC(=O)[C@H](CCCNC(=N)N)NC(=O)[C@H](CO)NC(=O)[C@@H](N)CCCNC(=N)N)C(=O)N[C@@H](CC(N)=O)C(=O)N[C@@H](CCSC)C(=O)N[C@H](C(=O)N1CCC[C@H]1C(=O)N[C@@H](CCCNC(=N)N)C(=O)N[C@@H](CCCNC(=N)N)C(=O)O)[C@@H](C)OP(=O)(O)O` [ppCD28]: the figures for the Kd in assay [1], in assay [2] and in assay [3] were 5.63 ± 0.29 µM, 15.2 ± 0.49 µM and 11 ± 0.57 µM, respectively.

In the case of `CSCC[C@H](NC(=O)[C@H](Cc1ccc(OP(=O)(O)O)cc1)NC(=O)[C@H](CC(=O)O)NC(=O)[C@H](CO)NC(=O)[C@H](Cc1c[nH]cn1)NC(=O)[C@H](CC(C)C)NC(=O)[C@H](CC(C)C)NC(=O)[C@H](CCCNC(=N)N)NC(=O)[C@H](CO)NC(=O)[C@@H](N)CCCNC(=N)N)C(=O)N[C@@H](CC(N)=O)C(=O)N[C@@H](CCSC)C(=O)N[C@H](C(=O)N1CCC[C@H]1C(=O)N[C@@H](CCCNC(=N)N)C(=O)N[C@@H](CCCNC(=N)N)C(=O)O)[C@@H](C)O` [p0CD28], the equilibrium dissociation constant (Kd) in assay [1] is 34.8 ± 2.25 µM; in assay [2], 45.7 ± 7.49 µM; in assay [3], 54.6 ± 5.12 µM.

Regarding `CC[C@H](C)[C@H](NC(=O)[C@H](CC(N)=O)NC(=O)[C@@H](NC(=O)[C@H](Cc1ccc(OP(=O)(O)O)cc1)NC(=O)[C@H](CCC(=O)O)NC(=O)CNC(=O)[C@@H]1CCCN1C(=O)[C@H](CO)NC(=O)[C@H](CCCCN)NC(=O)[C@@H]1CCCN1C(=O)[C@@H](N)CCC(=O)O)C(C)C)C(=O)N[C@@H](CCC(=O)O)C(=O)N[C@@H](Cc1ccccc1)C(=O)O` [p0SRev-IRS1], the Kd in assay [1] came to 17.7 ± 2.13 µM; in assay [2], 9.35 ± 1.54 µM; in assay [3] it was 14.8 ± 0.88 µM.

Consider `CC[C@H](C)[C@H](NC(=O)[C@H](CC(N)=O)NC(=O)[C@@H](NC(=O)[C@H](Cc1ccc(OP(=O)(O)O)cc1)NC(=O)[C@H](CCC(=O)O)NC(=O)CNC(=O)[C@@H]1CCCN1C(=O)[C@H](COP(=O)(O)O)NC(=O)[C@H](CCCCN)NC(=O)[C@@H]1CCCN1C(=O)[C@@H](N)CCC(=O)O)C(C)C)C(=O)N[C@@H](CCC(=O)O)C(=O)N[C@@H](Cc1ccccc1)C(=O)O` [ppSRev-IRS1], for which the Kd was determined as 1.91 ± 0.2 µM in assay [1], 0.67 ± 0.16 µM in assay [2] and 2.56 ± 0.28 µM in assay [3].

One may read the Kd as a measure of binding affinity in units of concentration. Lower therefore signals tighter binding.

Source of the values: PMC9481563, “Structural insights into the pSer/pThr dependent regulation of the SHP2 tyrosine phosphatase in insulin and CD28 signaling” (Nature Communications, 2022).
